Experimental data reported in US8592175B2, “Nitroreductase enzymatic substrates” (bioMérieux, S.A., priority 2009, dated 2013).

Assays:
Assay in all cases: Color, fluorescence and growth of colonies on Columbia medium with nitroreductase substrate
Type in all cases: cell-based
Details in all cases: 40 mg substrate in 400 ml Columbia medium, 24 hours at 37° C.
[1] = tested on: Escherichia coli NCTC 10 418; set-up: key to Growth: NG: no growth; 0.5: low growth; 1: moderate growth; 2: good growth
Method: (§1) 40 mg of each of the substrates were dissolved in 4 ml of dimethylsulfoxide and added to 400 ml of previously autoclaved Columbia medium. The 5 media were distributed in Petri dishes 90 mm in diameter at the rate of 20 ml per dish. Seventeen strains of microorganisms obtained from collections and belonging to various species of bacteria and yeasts are inoculated as spots of about 10 000 colony forming units. The media are incubated for 24 hours at 37° C. and then the colonies formed are examined visually and under a UV lamp at 365 nm.

[2] = tested on: Serratia marcescens NCTC 10 211; set-up: key to Growth: NG: no growth; 0.5: low growth; 1: moderate growth; 2: good growth
Method: as §1

[3] = tested on: Enterobacter cloacae NCTC 11 936; set-up: key to Growth: NG: no growth; 0.5: low growth; 1: moderate growth; 2: good growth
Method: as §1

[4] = tested on: Staphylococcus aureus NCTC 11 939; set-up: key to Growth: NG: no growth; 0.5: low growth; 1: moderate growth; 2: good growth; key to Fluo.: fluorescence of the colonies / Col.: color of the colonies: —: no color/fluorescence
Method: as §1

[5] = tested on: Staphylococcus aureus NCTC 6 571; set-up: key to Growth: NG: no growth; 0.5: low growth; 1: moderate growth; 2: good growth; key to Fluo.: fluorescence of the colonies / Col.: color of the colonies: —: no color/fluorescence
Method: as §1

[6] = tested on: Bacillus subtilis NCTC 9 372; set-up: key to Growth: NG: no growth; 0.5: low growth; 1: moderate growth; 2: good growth; key to Fluo.: fluorescence of the colonies / Col.: color of the colonies: —: no color/fluorescence
Method: as §1

[7] = tested on: Staphylococcus epidermidis NCTC 11 047; set-up: key to Growth: NG: no growth; 0.5: low growth; 1: moderate growth; 2: good growth; key to Fluo.: fluorescence of the colonies / Col.: color of the colonies: —: no color/fluorescence
Method: as §1

[8] = tested on: Enterococcus faecium NCTC 7 171; set-up: key to Growth: NG: no growth; 0.5: low growth; 1: moderate growth; 2: good growth; key to Fluo.: fluorescence of the colonies / Col.: color of the colonies: —: no color/fluorescence
Method: as §1

[9] = tested on: Pseudomonas aeruginosa NCTC 10 662; set-up: key to Growth: NG: no growth; 0.5: low growth; 1: moderate growth; 2: good growth; key to Fluo.: fluorescence of the colonies / Col.: color of the colonies: —: no color/fluorescence
Method: as §1

[10] = tested on: Providencia rettgeri NCTC 7 475; set-up: key to Growth: NG: no growth; 0.5: low growth; 1: moderate growth; 2: good growth; key to Fluo.: fluorescence of the colonies / Col.: color of the colonies: —: no color/fluorescence
Method: as §1

[11] = tested on: Candida glabrata NCPF 3 943; set-up: key to Growth: NG: no growth; 0.5: low growth; 1: moderate growth; 2: good growth; key to Fluo.: fluorescence of the colonies / Col.: color of the colonies: —: no color/fluorescence
Method: as §1

[12] = tested on: Yersinia enterocolitica NCTC 11 176; set-up: key to Growth: NG: no growth; 0.5: low growth; 1: moderate growth; 2: good growth; key to Fluo.: fluorescence of the colonies / Col.: color of the colonies: —: no color/fluorescence
Method: as §1

[13] = tested on: Candida albicans ATCC 90 028; set-up: key to Growth: NG: no growth; 0.5: low growth; 1: moderate growth; 2: good growth; key to Fluo.: fluorescence of the colonies / Col.: color of the colonies: —: no color/fluorescence
Method: as §1

[14] = tested on: Streptococcus pyogenes NCTC 8 306; set-up: key to Growth: NG: no growth; 0.5: low growth; 1: moderate growth; 2: good growth; key to Fluo.: fluorescence of the colonies / Col.: color of the colonies: —: no color/fluorescence
Method: as §1

[15] = tested on: Salmonella typhimurium NCTC 74; set-up: key to Growth: NG: no growth; 0.5: low growth; 1: moderate growth; 2: good growth; key to Fluo.: fluorescence of the colonies / Col.: color of the colonies: —: no color/fluorescence
Method: as §1

[16] = tested on: Listeria monocytogenes NCTC 11 994; set-up: key to Growth: NG: no growth; 0.5: low growth; 1: moderate growth; 2: good growth; key to Fluo.: fluorescence of the colonies / Col.: color of the colonies: —: no color/fluorescence
Method: as §1

[17] = tested on: Enterococcus faecalis NCTC 775; set-up: key to Growth: NG: no growth; 0.5: low growth; 1: moderate growth; 2: good growth; key to Fluo.: fluorescence of the colonies / Col.: color of the colonies: —: no color/fluorescence
Method: as §1

Col.: color of the colonies ([3]; examined visually): Rust
Col.: color of the colonies ([8]; examined visually): Rust
Col.: color of the colonies ([16]; examined visually): Rust
Col.: color of the colonies ([17]; examined visually): Rust
SMILES: C[n+]1ccc(C=Cc2ccc([N+](=O)[O-])cc2)c2ccccc21.[I-] [4NSMQ^+I, 4-(4′-nitrostyryl)-N-methylquinolinium iodide]
Growth [1]: 2
Growth [2]: 2
Growth [3]: 2
Growth [4]: NG
Fluo.: fluorescence of the colonies ([4]; UV lamp at 365 nm): —
Col.: color of the colonies ([4]; examined visually): —
Growth [5]: NG
Fluo.: fluorescence of the colonies ([5]; UV lamp at 365 nm): —
Col.: color of the colonies ([5]; examined visually): —
Growth [6]: NG
Fluo.: fluorescence of the colonies ([6]; UV lamp at 365 nm): —
Col.: color of the colonies ([6]; examined visually): —
Growth [7]: 1
Fluo.: fluorescence of the colonies ([7]; UV lamp at 365 nm): —
Col.: color of the colonies ([7]; examined visually): —
Growth [8]: 1
Fluo.: fluorescence of the colonies ([8]; UV lamp at 365 nm): —
Growth [9]: 2
Fluo.: fluorescence of the colonies ([9]; UV lamp at 365 nm): —
Growth [10]: 2
Fluo.: fluorescence of the colonies ([10]; UV lamp at 365 nm): —
Col.: color of the colonies ([10]; examined visually): Rust e
Growth [11]: 0.5
Fluo.: fluorescence of the colonies ([11]; UV lamp at 365 nm): —
Col.: color of the colonies ([11]; examined visually): —
Growth [12]: 1
Fluo.: fluorescence of the colonies ([12]; UV lamp at 365 nm): —
Col.: color of the colonies ([12]; examined visually): Rust
Growth [13]: NG
Fluo.: fluorescence of the colonies ([13]; UV lamp at 365 nm): —
Col.: color of the colonies ([13]; examined visually): —
Growth [14]: NG
Fluo.: fluorescence of the colonies ([14]; UV lamp at 365 nm): —
Col.: color of the colonies ([14]; examined visually): —
Growth [15]: 1
Fluo.: fluorescence of the colonies ([15]; UV lamp at 365 nm): —
Growth [16]: 1
Fluo.: fluorescence of the colonies ([16]; UV lamp at 365 nm): —
Growth [17]: 1
Fluo.: fluorescence of the colonies ([17]; UV lamp at 365 nm): —
